Reference: patent US9814796B2, “Methods for sterilization and/or disinfection” (P[…] OF NEVADA, LLC, priority 2015, dated 2017)
Read-outs that look alike come from different tables or passages of the source.

Tests used:
[1] = system: Bacillus atrophaeus ATCC 9372 spores; settings: 28% hydrogen peroxide, 65° C.
Excerpt: The mixture was then serially ten-fold diluted in saline and spread-plated on tryptic soy agar.

[2] = system: Bacillus atrophaeus ATCC 9372 spores; settings: conventional usage regime; cited from earlier work
[3] = system: Bacillus atrophaeus ATCC 9372 spores; assay: Efficacy usage regimes of hydrogen peroxide and peracetic acid as compared to performic acid; assay type: cell-based; settings: performic acid regime per Table 3
Procedure: For example, temperatures greater than about 55° C. to 65° C. and exposure times greater than about fifteen seconds may be employed in conventional techniques.

OO [Hydrogen Peroxide, hydrogen peroxide]
contact time per one logarithm of spore inactivation [1]: seven | Efficacy usage regime: Temperature [2]: 65 °C | Efficacy usage regime: Time [2]: 15 to 30 s

CC(=O)OO [Peracetic Acid, peracetic acid]
Efficacy usage regime: Temperature [2]: 55 °C | Efficacy usage regime: Time [2]: 15 s

performic acid
Efficacy usage regime: Temperature [3]: Room Temperature | Efficacy usage regime: Time [3]: 5 s
